ChEMBL document CHEMBL4321825, “Discovery of a Series of 5-Azaquinazolines as Orally Efficacious IRAK4 Inhibitors Targeting MyD88L265P Mutant Diffuse Large B Cell Lymphoma” (J Med Chem, 2019)
pIC50: −log10 of the molar value. In brackets after ≈: the same amount, converted by molar mass. Activity calls are given as the source filed them. The rule behind the calls is not given here.

Legend:
[1] = test system: OCI-LY19; assay: Growth inhibition of human OCI-LY19 cells at 0.13 uM incubated for 3 days by Alamar blue dye based fluorescence assay (reference value: 3%); assay type: functional; conditions: OCI-LY19, 72 h, read-out: GI
[2] = test system: OCI-LY19; assay: Growth inhibition of human OCI-LY19 cells at 1.7 uM incubated for 3 days by Alamar blue dye based fluorescence assay (reference value: 3%); assay type: functional; conditions: OCI-LY19, 72 h, read-out: GI
[3] = Unbound fraction in mouse plasma at 37 degC by equilibrium dialysis; assay type: ADME, cell-free
[4] = target: Dual specificity protein kinase CLK1 (Homo sapiens, UniProt P49759); assay: Inhibition of human recombinant CLK1 expressed in Escherichia coli
Sequence of Dual specificity protein kinase CLK1 (P49759 whole entry): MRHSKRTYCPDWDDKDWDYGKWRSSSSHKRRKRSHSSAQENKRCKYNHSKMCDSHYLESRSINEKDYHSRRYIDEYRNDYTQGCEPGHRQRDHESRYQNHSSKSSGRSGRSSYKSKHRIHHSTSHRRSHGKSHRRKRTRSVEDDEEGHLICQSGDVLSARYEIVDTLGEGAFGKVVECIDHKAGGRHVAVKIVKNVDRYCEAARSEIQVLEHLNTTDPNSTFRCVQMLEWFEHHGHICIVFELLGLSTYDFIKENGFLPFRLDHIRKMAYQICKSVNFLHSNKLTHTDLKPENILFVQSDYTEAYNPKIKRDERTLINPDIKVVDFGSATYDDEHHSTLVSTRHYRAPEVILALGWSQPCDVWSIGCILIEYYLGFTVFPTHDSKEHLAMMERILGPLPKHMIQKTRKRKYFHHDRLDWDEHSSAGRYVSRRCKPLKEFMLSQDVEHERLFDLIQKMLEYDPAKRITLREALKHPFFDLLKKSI

[5] = Aqueous solubility in pH 7.4 phosphate buffer; assay type: physicochemical
[6] = test system: OCI-LY19; assay: Growth inhibition of human OCI-LY19 cells at 0.33 uM incubated for 3 days by Alamar blue dye based fluorescence assay (reference value: 3%); assay type: functional; conditions: OCI-LY19, 72 h, read-out: GI
[7] = test system: OCI-LY19; assay: Growth inhibition of human OCI-LY19 cells at 10 uM incubated for 3 days by Alamar blue dye based fluorescence assay (reference value: 3%); assay type: functional; conditions: OCI-LY19, 72 h, read-out: GI
[8] = Intrinsic clearance in rat hepatocytes assessed per million cells; assay type: ADME, cell-based, Hepatocyte; conditions: read-out: CLH
[9] = species on record: Homo sapiens; assay: Selectivity index, ratio of IC50 for inhibition of CDK7 (unknown origin) to IC50 for inhibition of IRAK4 (unknown origin) in presence of 5 mM ATP by enzymatic assay
[10] = target: Dual specificity protein kinase CLK4 (Homo sapiens, UniProt Q9HAZ1); assay: Inhibition of human recombinant CLK4 expressed in Baculovirus system
Sequence of Dual specificity protein kinase CLK4 (Q9HAZ1 whole entry): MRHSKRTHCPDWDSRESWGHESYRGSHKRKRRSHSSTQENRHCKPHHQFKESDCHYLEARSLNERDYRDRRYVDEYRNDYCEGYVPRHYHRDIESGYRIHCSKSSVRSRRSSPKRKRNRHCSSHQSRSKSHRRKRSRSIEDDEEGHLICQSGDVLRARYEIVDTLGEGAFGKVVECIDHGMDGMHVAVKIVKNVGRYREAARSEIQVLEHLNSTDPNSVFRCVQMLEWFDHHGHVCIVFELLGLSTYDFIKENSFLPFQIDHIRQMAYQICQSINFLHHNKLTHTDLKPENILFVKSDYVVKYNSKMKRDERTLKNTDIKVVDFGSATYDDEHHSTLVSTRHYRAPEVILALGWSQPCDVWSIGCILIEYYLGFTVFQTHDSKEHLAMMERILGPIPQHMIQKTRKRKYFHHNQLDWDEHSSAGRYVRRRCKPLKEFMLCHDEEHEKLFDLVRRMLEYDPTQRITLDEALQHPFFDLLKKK

[11] = species on record: Homo sapiens; assay: Selectivity index, ratio of IC50 for inhibition of human recombinant CLK2 expressed in Baculovirus system to IC50 for inhibition of IRAK4 (unknown origin) in presence of 5 mM ATP by enzymatic assay
[12] = AUC in SCID mouse at 50 mg/kg, po; assay type: ADME, organism-based; conditions: in vivo
[13] = test system: OCI-Ly10; assay: Growth inhibition of human OCI-LY10 cells at 10 uM incubated for 3 days by Alamar blue dye based fluorescence assay (reference value: 3%); assay type: functional; conditions: OCI-Ly10, 72 h, read-out: GI
[14] = test system: OCI-Ly10; assay: Antitumor activity against human OCI-LY10 cells xenografted in CB.17 SCID mouse assessed as inhibition of tumor growth at 100 mg/kg, po QD dosed 34 days after tumor cell inoculation; assay type: functional, organism-based
[15] = test system: OCI-Ly10; assay: Antitumor activity against human OCI-LY10 cells xenografted in CB.17 SCID mouse assessed as induction of tumor regression at 100 mg/kg, po QD dosed 34 days after tumor cell inoculation and co-treated with 12 mg/kg, po QD ibrutinib; assay type: functional, organism-based
[16] = test system: OCI-Ly10; assay: Growth inhibition of human OCI-LY10 cells at 0.33 uM incubated for 3 days by Alamar blue dye based fluorescence assay (reference value: 3%); assay type: functional; conditions: OCI-Ly10, 72 h, read-out: GI
[17] = species on record: Homo sapiens; assay: Selectivity index, ratio of IC50 for inhibition of IRAK1 (unknown origin) to IC50 for inhibition of IRAK4 (unknown origin) in presence of 5 mM ATP by enzymatic assay
[18] = Plasma clearance in Han Wistar rat at 1 mg/kg, iv; assay type: ADME, organism-based
[19] = species on record: Homo sapiens; assay: Selectivity index, ratio of IC50 for inhibition of human recombinant CLK4 expressed in Baculovirus system to IC50 for inhibition of IRAK4 (unknown origin) in presence of 5 mM ATP by enzymatic assay
[20] = target: Cyclin-dependent kinase 9 (Homo sapiens, UniProt P50750); assay: Inhibition of CDK9 (unknown origin)
Sequence of Cyclin-dependent kinase 9 (P50750 whole entry): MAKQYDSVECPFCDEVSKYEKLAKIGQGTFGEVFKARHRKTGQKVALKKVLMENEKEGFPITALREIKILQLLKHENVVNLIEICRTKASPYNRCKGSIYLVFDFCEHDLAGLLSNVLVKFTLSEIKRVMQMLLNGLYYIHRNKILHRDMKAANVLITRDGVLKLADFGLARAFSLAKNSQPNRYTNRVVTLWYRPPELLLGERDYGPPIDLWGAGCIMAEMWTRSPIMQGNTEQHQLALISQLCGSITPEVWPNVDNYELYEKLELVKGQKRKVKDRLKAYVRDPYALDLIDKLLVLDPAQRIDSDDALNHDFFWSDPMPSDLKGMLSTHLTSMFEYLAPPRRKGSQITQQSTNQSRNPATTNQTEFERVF

[21] = species on record: Homo sapiens; assay: Selectivity index, ratio of IC50 for inhibition of human recombinant CLK3 expressed in Baculovirus system to IC50 for inhibition of IRAK4 (unknown origin) in presence of 5 mM ATP by enzymatic assay
[22] = target: CDK8/Cyclin C (Homo sapiens, UniProt P49336); assay: Inhibition of human recombinant CDK8/cyclinC expressed in Baculovirus system
Sequence of CDK8/Cyclin C (P49336 whole entry): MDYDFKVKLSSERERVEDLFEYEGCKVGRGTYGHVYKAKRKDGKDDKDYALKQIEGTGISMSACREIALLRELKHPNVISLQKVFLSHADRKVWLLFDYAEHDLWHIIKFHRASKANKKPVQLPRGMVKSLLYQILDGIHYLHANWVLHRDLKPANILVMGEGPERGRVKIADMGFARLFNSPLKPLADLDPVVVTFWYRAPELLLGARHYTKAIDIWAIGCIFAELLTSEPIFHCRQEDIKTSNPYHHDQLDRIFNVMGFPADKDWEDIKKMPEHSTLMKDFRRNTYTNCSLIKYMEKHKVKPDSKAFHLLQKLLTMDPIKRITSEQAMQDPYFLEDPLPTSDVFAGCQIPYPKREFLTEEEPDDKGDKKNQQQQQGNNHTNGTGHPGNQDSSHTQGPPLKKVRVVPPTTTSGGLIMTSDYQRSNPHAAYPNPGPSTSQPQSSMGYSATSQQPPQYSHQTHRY
Sequence of CDK8/Cyclin C (P24863 whole entry, further chain): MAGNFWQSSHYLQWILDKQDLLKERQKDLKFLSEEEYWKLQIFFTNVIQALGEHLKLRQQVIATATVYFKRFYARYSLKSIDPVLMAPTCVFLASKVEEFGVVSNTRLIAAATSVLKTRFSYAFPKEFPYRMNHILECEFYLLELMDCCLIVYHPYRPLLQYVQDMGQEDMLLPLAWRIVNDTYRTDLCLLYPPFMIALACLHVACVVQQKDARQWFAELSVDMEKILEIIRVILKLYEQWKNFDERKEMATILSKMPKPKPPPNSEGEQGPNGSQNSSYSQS

[23] = Volume of distribution at steady state in Han Wistar rat at 1 mg/kg, iv; assay type: ADME, organism-based; conditions: in vivo, read-out: Vdss
[24] = target: T1, Interleukin-1 receptor-associated kinase 4 (Homo sapiens) (UniProt Q9NWZ3); assay: Inhibition of IRAK4 (unknown origin) at 0.1 uM relative to control
T1 sequence (whole entry): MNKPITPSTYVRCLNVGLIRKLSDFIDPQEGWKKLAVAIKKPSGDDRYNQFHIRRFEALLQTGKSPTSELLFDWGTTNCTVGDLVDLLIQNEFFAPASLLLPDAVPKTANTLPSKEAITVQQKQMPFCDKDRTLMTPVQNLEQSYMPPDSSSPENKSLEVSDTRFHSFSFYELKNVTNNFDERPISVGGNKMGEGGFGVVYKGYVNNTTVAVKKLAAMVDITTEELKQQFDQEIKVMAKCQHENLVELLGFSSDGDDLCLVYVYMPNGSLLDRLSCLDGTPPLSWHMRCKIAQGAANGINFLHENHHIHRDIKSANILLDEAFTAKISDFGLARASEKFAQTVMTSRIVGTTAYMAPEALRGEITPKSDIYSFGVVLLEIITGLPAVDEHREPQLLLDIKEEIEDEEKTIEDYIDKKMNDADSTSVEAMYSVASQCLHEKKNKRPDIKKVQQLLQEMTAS

[25] = Lipophilicity, logD of the compound at pH 7.4 by shake-flask assay; assay type: physicochemical; conditions: buffer
[26] = test system: OCI-Ly10; assay: Growth inhibition of human OCI-LY10 cells at 3.3 uM incubated for 3 days by Alamar blue dye based fluorescence assay (reference value: 3%); assay type: functional; conditions: OCI-Ly10, 72 h, read-out: GI
[27] = test system: OCI-Ly10; assay: Growth inhibition of human OCI-LY10 cells at 0.13 uM incubated for 3 days by Alamar blue dye based fluorescence assay (reference value: 3%); assay type: functional; conditions: OCI-Ly10, 72 h, read-out: GI
[28] = Oral bioavailability in Han Wistar rat at 2 mg/kg; assay type: ADME, organism-based; conditions: in vivo
[29] = species on record: Homo sapiens; assay: Selectivity index, ratio of IC50 for inhibition of CDK9 (unknown origin) to IC50 for inhibition of IRAK4 (unknown origin) in presence of 5 mM ATP by enzymatic assay
[30] = target: T2, Interleukin-1 receptor-associated kinase 1 (Homo sapiens, UniProt P51617); assay: Inhibition of IRAK1 (unknown origin) at 0.1 uM relative to control
Target sequence in this assay (P51617 whole entry, looked up): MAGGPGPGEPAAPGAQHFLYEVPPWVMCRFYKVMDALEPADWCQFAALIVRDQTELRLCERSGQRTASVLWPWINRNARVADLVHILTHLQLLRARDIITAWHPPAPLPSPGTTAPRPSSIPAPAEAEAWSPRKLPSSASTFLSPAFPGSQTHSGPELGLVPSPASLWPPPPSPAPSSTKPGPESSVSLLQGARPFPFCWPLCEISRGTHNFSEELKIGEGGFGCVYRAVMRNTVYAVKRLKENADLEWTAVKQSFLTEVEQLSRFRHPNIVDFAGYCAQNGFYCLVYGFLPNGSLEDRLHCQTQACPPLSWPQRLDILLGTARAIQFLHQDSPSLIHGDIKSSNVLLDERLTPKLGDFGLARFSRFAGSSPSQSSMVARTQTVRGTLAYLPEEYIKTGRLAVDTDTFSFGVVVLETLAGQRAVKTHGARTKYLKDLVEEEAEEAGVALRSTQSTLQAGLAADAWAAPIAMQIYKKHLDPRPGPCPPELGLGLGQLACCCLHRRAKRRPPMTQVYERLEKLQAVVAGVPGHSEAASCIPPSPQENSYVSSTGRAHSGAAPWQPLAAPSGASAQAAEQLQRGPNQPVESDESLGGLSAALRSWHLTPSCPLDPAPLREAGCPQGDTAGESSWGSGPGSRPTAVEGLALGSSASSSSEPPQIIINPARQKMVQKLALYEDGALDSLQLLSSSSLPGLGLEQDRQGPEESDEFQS

[31] = Intrinsic clearance in human hepatocytes assessed per million cells; assay type: ADME, cell-based, Hepatocyte; conditions: read-out: CLH
[32] = species on record: Homo sapiens; assay: Selectivity index, ratio of IC50 for inhibition of human recombinant CLK1 expressed in Escherichia coli to IC50 for inhibition of IRAK4 (unknown origin) in presence of 5 mM ATP by enzymatic assay
[33] = target: T2, Interleukin-1 receptor-associated kinase 1; assay: Inhibition of IRAK1 (unknown origin)
Target sequence in this assay (P51617 whole entry): as the sequence (P51617 whole entry, looked up) above

[34] = target: T1, Interleukin-1 receptor-associated kinase 4 (Homo sapiens); assay: Inhibition of IRAK4 in human OCI-LY10 cells assessed as decrease in pIKBalpha levels at 0.3 uM in presence of 3 nM ibrutinib incubated for 14 hrs by Western blotting analysis relative to control; assay type: cell-based
[35] = Efflux ratio in human Caco2 cells; assay type: ADME, cell-based; conditions: Caco-2
[36] = target: T3, Interleukin-1 receptor-associated kinase 4 (Homo sapiens, UniProt Q9NWZ3); assay: Inhibition of IRAK4 (unknown origin) in presence of 5 mM ATP by enzymatic assay
T3 sequence (Q9NWZ3 whole entry): T1 sequence (whole entry)

[37] = Intrinsic permeability in human Caco2 cells; assay type: ADME, cell-based; conditions: Caco-2
[38] = target: Dual specificity protein kinase CLK3 (Homo sapiens, UniProt P49761); assay: Inhibition of human recombinant CLK3 expressed in Baculovirus system
Sequence of Dual specificity protein kinase CLK3 (P49761 whole entry): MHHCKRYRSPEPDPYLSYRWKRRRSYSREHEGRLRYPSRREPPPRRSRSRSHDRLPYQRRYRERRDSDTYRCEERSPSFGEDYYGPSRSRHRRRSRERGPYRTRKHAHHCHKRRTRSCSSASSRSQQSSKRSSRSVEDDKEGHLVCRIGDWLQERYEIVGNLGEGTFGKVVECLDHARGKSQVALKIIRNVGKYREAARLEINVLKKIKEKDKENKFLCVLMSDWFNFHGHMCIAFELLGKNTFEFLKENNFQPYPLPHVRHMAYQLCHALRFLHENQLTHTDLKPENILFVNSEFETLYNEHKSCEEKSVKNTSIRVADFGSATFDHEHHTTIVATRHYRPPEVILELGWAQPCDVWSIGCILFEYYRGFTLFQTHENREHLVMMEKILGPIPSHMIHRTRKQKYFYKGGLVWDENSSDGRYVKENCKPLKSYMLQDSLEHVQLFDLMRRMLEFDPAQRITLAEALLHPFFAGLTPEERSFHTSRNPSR

[39] = species on record: Homo sapiens; assay: Selectivity index, ratio of IC50 for inhibition of human recombinant CDK8/cyclinC expressed in Baculovirus system to IC50 for inhibition of IRAK4 (unknown origin) in presence of 5 mM ATP by enzymatic assay
[40] = target: T3, Interleukin-1 receptor-associated kinase 4; assay: Inhibition of IRAK4 (unknown origin) by cell based assay
[41] = test system: OCI-Ly10; assay: Growth inhibition of human OCI-LY10 cells at 1.7 uM incubated for 3 days by Alamar blue dye based fluorescence assay (reference value: 3%); assay type: functional; conditions: OCI-Ly10, 72 h, read-out: GI
[42] = Unbound fraction in human plasma at 37 degC by equilibrium dialysis; assay type: ADME, cell-free
[43] = Unbound fraction in rat plasma at 37 degC by equilibrium dialysis; assay type: ADME, cell-free
[44] = target: Cyclin-dependent kinase 7 (Homo sapiens, UniProt P50613); assay: Inhibition of CDK7 (unknown origin)
Sequence of Cyclin-dependent kinase 7 (P50613 whole entry): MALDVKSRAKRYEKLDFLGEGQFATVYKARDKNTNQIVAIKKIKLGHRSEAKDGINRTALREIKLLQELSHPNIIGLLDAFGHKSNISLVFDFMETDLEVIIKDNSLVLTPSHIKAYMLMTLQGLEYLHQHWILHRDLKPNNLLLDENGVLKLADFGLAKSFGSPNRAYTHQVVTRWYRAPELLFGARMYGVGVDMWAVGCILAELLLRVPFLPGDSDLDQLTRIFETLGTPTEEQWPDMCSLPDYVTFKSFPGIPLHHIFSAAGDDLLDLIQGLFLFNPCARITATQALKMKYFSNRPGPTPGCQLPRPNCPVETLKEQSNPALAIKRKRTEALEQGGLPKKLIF

[45] = target: Dual specificity protein kinase CLK2 (Homo sapiens, UniProt P49760); assay: Inhibition of human recombinant CLK2 expressed in Baculovirus system
Sequence of Dual specificity protein kinase CLK2 (P49760 whole entry): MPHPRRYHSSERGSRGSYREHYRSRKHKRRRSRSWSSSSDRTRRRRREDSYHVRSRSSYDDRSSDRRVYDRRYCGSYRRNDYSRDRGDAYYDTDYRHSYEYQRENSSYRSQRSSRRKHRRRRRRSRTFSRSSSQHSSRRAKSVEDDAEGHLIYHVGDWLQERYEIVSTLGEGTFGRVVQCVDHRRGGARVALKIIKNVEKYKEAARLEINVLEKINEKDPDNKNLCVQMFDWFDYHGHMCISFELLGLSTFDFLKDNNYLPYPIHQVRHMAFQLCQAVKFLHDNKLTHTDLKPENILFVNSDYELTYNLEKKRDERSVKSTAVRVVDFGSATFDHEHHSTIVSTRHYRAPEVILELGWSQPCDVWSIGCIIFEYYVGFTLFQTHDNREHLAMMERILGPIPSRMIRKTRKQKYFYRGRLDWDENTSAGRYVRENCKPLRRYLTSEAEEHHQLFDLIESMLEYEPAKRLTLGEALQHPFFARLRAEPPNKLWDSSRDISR

[46] = test system: OCI-LY19; assay: Growth inhibition of human OCI-LY19 cells at 3.3 uM incubated for 3 days by Alamar blue dye based fluorescence assay (reference value: 3%); assay type: functional; conditions: OCI-LY19, 72 h, read-out: GI

COC(=O)N1CCN([C@H]2CC[C@H](Nc3nc(Nc4cnn(C)c4)nc4ccc(CC#N)nc34)CC2)CC1
inhibition of growth at 0.13 µM [1]: 6%
inhibition of growth at 1.7 µM [2]: 31%
fraction unbound [3]: 0.44
pIC50 [4]: 5.51
solubility [5]: 29 µM (≈ 14.6 µg/mL)
inhibition of growth at 0.33 µM [6]: 10%
inhibition of growth at 10 µM [7]: 88%
hepatocyte CLint [8]: 10 µL/min/1e6 cells
Ratio IC50 [9]: 4250
pIC50 [10]: 6.00
Ratio IC50 [11]: 350
AUC [12]: 23 µM·h
inhibition of growth at 10 µM [13]: 82%
TGI [14]: Active
Activity [15]: Active
inhibition of growth at 0.33 µM [16]: 12%
Ratio IC50 [17]: 6.8
clearance [18]: 25 mL/min/kg
Ratio IC50 [19]: 250
pIC50 [20]: 4.89
Ratio IC50 [21]: > 2500
pIC50 [22]: < 5.00
Vd [23]: 4.5 L/kg
inhibition [24]: 104%
logD [25]: 2.3
inhibition of growth at 3.3 µM [26]: 44%
inhibition of growth at 0.13 µM [27]: 8%
bioavailability [28]: 10%
Ratio IC50 [29]: 3250
inhibition [30]: 70%
hepatocyte CLint [31]: 10 µL/min/1e6 cells
Ratio IC50 [32]: 775
pIC50 [33]: 7.57
inhibition [34]: 100%
efflux ratio [35]: 24
pIC50 [36]: 8.40
Papp [37]: 9.3 ×10⁻⁶ cm/s
pIC50 [38]: < 5.00
Ratio IC50 [39]: > 2500
pIC50 [40]: 7.34
inhibition of growth at 1.7 µM [41]: 25%
fraction unbound [42]: 0.3
fraction unbound [43]: 0.23
pIC50 [44]: 4.77
pIC50 [45]: 5.85
inhibition of growth at 3.3 µM [46]: 50%
